Experimental data: patent publication US5006548A, “Acrylamidobenzoic acid derivatives and their use” (Sawai Pharmaceutical Co., Ltd., priority 1984, dated 1991)

Tests used:
[1] = system: SRS-A; assay: Anti-SRS-A action: ileum contraction induced by crude SRS-A solution; parameters: species or system guinea pig
Procedure: A piece of lung of guinea pig sensitized with ovalbumin was incubated with antigen ovalbumin at 37° C. for 20 minutes and supernatant was separated in order to use as a crude SRS-A solution.
A piece of ileum of a normal guinea pig was suspended in Tyrode's solution in a Magnus tube and incubated with a solution of the compound to be tested for a predetermined duration. The contraction of the piece of ileum induced by adding the above crude SRS-A solution was compared with that attributed to 10^-6 M histamine dihydrochloride (which was taken as 100). The anti-SRS-A action was shown in terms of the rate of inhibition to the contraction.

[2] = system: passive cutaneous anaphylaxis; assay: Anti-passive cutaneous anaphylaxis (PCA) activity in rats; type: in vivo, Wistar strain rats; conditions: for Average Inhibition Rate (%), Antiserum Dilution: × 16 / Average Inhibition Rate (%), Antiserum Dilution: × 32: 100 mg/kg PO, rats; for anti-PCA activity (in words): rat, in vivo
Procedure: Wistar strain rats were sensitized with ovalbumin using aluminium hydroxide gel and Bordetella Pertussis vaccine as adjuvants. Dilutions of antiserum (16-fold and 32-fold) obtained by collecting blood samples 14 days later were administered subcutaneously in the dorsal skin of the rats of the same strain at the rate of 0.1 ml per spot, and the rats were grown for 48 hours. One hour after peroral administration of the sample solution, a mixture of antigen ovalbumin and Evans-blue dye was administered to the tail venous of the animal according to the ordinary procedure. Thirty minutes later, the animals were sacrificed by exsanguination, and the areas of blue spots (long diameter×short diameter) eliciting on the portion of the antiserum injection at the dorsal skin were measured to obtain the rate of inhibition based on the average value shown by the control animals.

[3] = system: peritoneal mast cell; assay: Inhibition of histamine release from mast cell in abdominal cavity of rats by antigen-antibody reaction; type: cell-based, rat; conditions: for effect on natural release of histamine (in words) / activity at 1000 µM: 10^-3 M; for activity at 1000 µM / activity at 100 µM / activity at 10 µM / activity at 1 µM: Rattus norvegicus, Mast cell, 20 min, DNP-Ascaris 20 microgramms/ml, read-out: Amount of histamine released from peritoneal mast cell (Control=100); for activity at 100 µM: 10^-4 M; for activity at 10 µM: 10^-5 M; for activity at 1 µM: 10^-6 M; for inhibitory activity compared with tranilast (in words): range of 10^-6 M to 10^-3 M
Procedure: Examination was made on the activity of inhibition of histamine release from mast cell by antigen-antibody reaction.
Swine ascaris extract solution was dinitrophenylated according to Aisen's method, dialysed, and lyophilized. The product was administered as antigen together with Bordetella Pertussis vaccine subcutaneously into the foot pad of rat. Eight days later, blood was taken in order to obtain antiserum. The PCA titer for this antiserum in rat was 32 to 64.
Heparin-containing PBS was injected intraperitoneally to rat which was sacrificed by exsanguination, after which the abdomen was well massaged. Then the injected PBS was collected and purified by washing several times by centrifugation. The number of the mast cells contained in the solution was determined and adjusted to the designed concentration. As to method of sensitizing the cell, the above cell suspension (6 ml, 2×10^6 cells/ml) was treated with anti-DNP-Ascaris rat serum (PCA titer 32) (6 ml) and the mixture was incubated in the presence of heparin at 37° C. for 2 hours.
To the sensitized mast cell suspension, the solution of the compound to be tested was added, and the mixture was preliminarily incubated at 37° C. for 12 minutes. After addition of the solution of antigen DNP-Ascaris (final concentration: 20 microgramms/ml), the mixture was further incubated for 20 minutes. After completion of the reaction, the solution was centrifuged (500 G, 10 min.) at a low temperature to obtain a supernatant solution. Histamine contained in the supernatant solution was determined by fluorometry using orthophthalaldehyde method.

[4] = target: T1, hyaluronidase (Bos taurus, UniProt Q2YDK3); assay: Antihyaluronidase activity (modified Morgan-Elson method, activated by Compound 48/80 or CaCl2); type: biochemical; conditions: hyaluronidase 340 NF unit/ml, 37° C.
T1 sequence (Q2YDK3 36-553): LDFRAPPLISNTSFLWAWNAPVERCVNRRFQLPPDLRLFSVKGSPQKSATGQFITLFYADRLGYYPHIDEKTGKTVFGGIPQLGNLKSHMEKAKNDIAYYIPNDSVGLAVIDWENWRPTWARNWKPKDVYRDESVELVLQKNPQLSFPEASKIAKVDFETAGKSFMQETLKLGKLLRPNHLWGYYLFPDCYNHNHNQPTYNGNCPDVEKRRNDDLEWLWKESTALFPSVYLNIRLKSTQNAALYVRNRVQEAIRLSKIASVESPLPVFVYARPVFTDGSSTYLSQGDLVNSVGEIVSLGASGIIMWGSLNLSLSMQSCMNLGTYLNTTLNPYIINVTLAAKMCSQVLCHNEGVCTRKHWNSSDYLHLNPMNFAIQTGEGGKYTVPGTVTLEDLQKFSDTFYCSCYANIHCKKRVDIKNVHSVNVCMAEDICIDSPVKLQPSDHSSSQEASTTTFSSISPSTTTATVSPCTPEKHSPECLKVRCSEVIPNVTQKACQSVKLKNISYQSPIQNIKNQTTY
From the text: In view of the fact that antiallergic agents such as sodium cromoglicate (DSCG), tranilast, etc. inhibit the hyaluronidase activity and that compounds which release histamine from the mast cells such as the […] and polymixin B activate the hyaluronidase, it is considered that the hyaluronidase inhibiting activity can be taken as an index for the antiallergic action. [ct. The 5th Medicinal Chemistry Symposium (Dec. 9 and 10, 1983; Kyoto) Synopsis of Lectures, page 68]. On the basis of such knowledge, the compounds according to the invention were tested for anti-hyaluronidase activity and found to have the excellent activities.
A buffer solution of hyaluronidase (0.1 ml) was taken in a test tube and buffer solutions of various compounds in various concentrations (0.2 ml each) were added. The mixture was incubated at 37° C. for 20 minutes. Then, a buffer solution of activating agent (Compound 48/80 or CaCl2) (0.2 ml) was added up to the total volume of 0.5 ml, and the mixture was incubated at 37° C. for 20 minutes. To this solution, potassium hyaluronate buffer solution (0.5 ml) was added and the mixture was incubated at 37° C. for 40 minutes. After cooling, the solution was neutralized with 0.4N aqueous solution of sodium hydroxide (0.2 ml) to stop the reaction. On the resulting solution, OD585 was determined by modified Morgan-Elson method. A buffer solution or water (0.2 ml) was used as a control in place of the solution of the compounds in the same operation including OD585 measurement. (Final concentration of hyaluronidase was 340 NF unit/ml.)

[5] = Acute toxicity; conditions: mouse, in vivo, mice, one week
Procedure: As test animals, ddy-strain mice (male) were used. According to the conventional procedure, suspension or solution of test compound was administered to the animals. From the number of the dead animals up to one week after the administration, LD50 values were obtained by Provit method.

[6] = system: ileum of guinea pig active-sensitized with ovalbumin; assay: Anti-Schultz-Dale action: ovalbumin-induced contraction of sensitized ileum; conditions: 10^-3 M
Procedure: A piece of ileum of guinea pig active-sensitized with ovalbumin with Freund complete adjuvant was suspended in Tyrode's solution in a Magnus tube and incubated with a solution of the compound to be tested for a predetermined duration. The contraction of the piece of ileum induced by applying the ovalubumin was compared with that attributed to 10^-6 M histamine dihydrochloride. The anti-Schultz-Dale action was shown in terms of the rate of inhibition to the contraction.

| Compound | anti-SRS-A action (in words) [1] | inhibition of SRS-A induced contraction ([1]; 10^-3 M) [%] | Average Inhibition Rate (%), Antiserum Dilution: × 16 [2] [%] | Average Inhibition Rate (%), Antiserum Dilution: × 32 [2] [%] | anti-PCA activity (in words) [2] | inhibition of histamine release from mast cell (in words) [3] | effect on natural release of histamine (in words) [3] | activity at 1000 µM [3] [%] | activity at 100 µM [3] [%] | activity at 10 µM [3] [%] | activity at 1 µM [3] [%] | inhibitory activity compared with tranilast (in words) [3] | IC50 [4] [µM] | LD50 at 168 h ([5]; Intravenous) [mg/kg] | LD50 at 168 h ([5]; PO) [mg/kg] | anti-Schultz-Dale action (in words) [6] | inhibition of contraction (anti-Schultz-Dale) [6] [%] | inhibition of SRS-A induced contraction ([1]; 10^-4 M) [%] |
| --- | --- | --- | --- | --- | --- | --- | --- | --- | --- | --- | --- | --- | --- | --- | --- | --- | --- | --- |
| O=C(C=Cc1cccs1)Nc1ccccc1C(=O)O [Compound 2, 2-[3-(2-thienyl)acrylamido]benzoic acid] | mild anti-SRS-A action | 11.0 | 26.7 | 21.2 | showed the anti-PCA activity | action of inhibiting release of histamine from the mast cell even at the low concentration of 10^-6 M | inhibited natural release of histamine | -130 | -70 | 24 | 11 | stronger inhibitory activity than the control tranilast | 140 | 277 | 400 | strong anti-Schultz-Dale action | 100 | – |
| Cn1cccc1C=CC(=O)Nc1ccccc1C(=O)O [Compound 6] | – | – | – | – | – | – | – | – | – | – | – | – | 120 | – | – | – | – | – |
| O=C(C=Cc1ccco1)Nc1ccccc1C(=O)O [Compound 3, 2-[3-(2-furyl)acrylamido]benzoic acid] | – | – | – | – | showed the anti-PCA activity | strong inhibition from 10^-4 M | – | 0 | 36 | 85 | 95 | stronger inhibitory activity than the control tranilast | 160 | – | – | – | – | – |
| O=C(C=Cc1ccsc1)Nc1ccccc1C(=O)O [Compound 1, 2-[3-(3-thienyl)acrylamido]benzoic acid] | mild anti-SRS-A action | 23.9 | 31.6 | 41.8 | – | action of inhibiting release of histamine from the mast cell even at the low concentration of 10^-6 M | inhibited natural release of histamine | -88 | 11 | 36 | 31 | stronger inhibitory activity than the control tranilast | 86 | 438 | 615 | strong anti-Schultz-Dale action | 83.5 | 14.8 |
| O=C(C=Cc1ccco1)Nc1cc(Cl)ccc1C(=O)O [Compound 4] | – | – | – | – | – | – | – | – | – | – | – | – | 258 | – | – | – | – | – |
| COc1ccc(/C=C/C(=O)Nc2ccccc2C(=O)O)cc1OC [Tranilast, reference compound] | no action | – | – | – | – | – | – | 29 | 67 | 95 | 95 | – | – | – | – | no action | – | – |
| O=C(C=Cc1ccco1)Nc1cc([N+](=O)[O-])ccc1C(=O)O [Compound 5] | – | – | – | – | – | – | – | – | – | – | – | – | 300 | – | – | – | – | – |
